According to patent US9550772B2, “Azaindole derivatives as multi kinase inhibitors” (ORIBASE PHARMA, priority 2012, dated 2017):

How the values were obtained:
HUVEC cells = test: In vitro cell proliferation assay (MTT); assay type: cell-based; conditions: Homo sapiens, 72 hr, EC50 ≧ 1 μM, read-out: EC50, anti-proliferative activity
Procedure: (§1) Cancer cell lines (5×10^3 cells per well) or HUVEC (1×10^4 cells per well) or HRMEC (1×10^4 cells per well) were distributed in 96-well plates and incubating in duplicate with escalating concentrations (10 nM to 3 μM) of compounds for 72 hr. Cell proliferation was measured using MTT (3[4,5-dimethylthiazol-2-yl]-2,5-diphenyltetrazolium bromide). The EC50 values were calculated from sigmoidal dose-response curves utilizing Prism 5.0 from Graph-Pad Software (GraphPad Software, La Jolla, Calif., USA), with values normalized to those of DMSO-treated control wells (0%) and 1% SDS control wells (100%).

MDA-MB-231 cell line = test: In vitro cell proliferation assay (MTT); assay type: cell-based; conditions: Homo sapiens, MDA-MB-231, 72 hr, EC50 ≧ 1 μM, read-out: EC50, anti-proliferative activity
Procedure: as §1

HeLa cell line = test: In vitro cell proliferation assay (MTT); assay type: cell-based; conditions: Homo sapiens, 72 hr, EC50 ≧ 1 μM, read-out: EC50, anti-proliferative activity
Procedure: as §1

HepG2 cell line = test: In vitro cell proliferation assay (MTT); assay type: cell-based; conditions: Homo sapiens, HepG2, 72 hr, EC50 ≧ 1 μM, read-out: EC50, anti-proliferative activity
Procedure: as §1

A549 cell line = test: In vitro cell proliferation assay (MTT); assay type: cell-based; conditions: Homo sapiens, A549, 72 h, EC50 ≧ 1 μM, read-out: EC50, anti-proliferative activity
Procedure: as §1

KDR (VEGFR2) = biological target: T1, KDR (VEGFR2) (Homo sapiens, UniProt P35968); test: In vitro kinase assay (Z'-LYTE, Invitrogen); assay type: biochemical; conditions: compound at 100 nM, ATP Km apparent, read-out: % of inhibition of the kinase compared to the control
T1 construct: purchased Invitrogen
Procedure: (§2) The inhibitory activity of the compounds on 7 kinases (BRAF, EGFR (ErbB1), EGFR (ErbB1) T790M L858R, FGFR2, KDR (VEGFR2), PDGFRA (PDGFR alpha), SRC) was evaluated by Invitrogen using the Z′-LYTE® technology. Briefly, the Z′-LYTE® biochemical assay employs a fluorescence-based, coupled-enzyme format and is based on the differential sensitivity of phosphorylated and non-phosphorylated peptides to proteolytic cleavage. The peptide substrate is labeled with two fluorophores—one at each end—that make up a FRET pair. A ratiometric method, which calculates the ratio (the Emission Ratio) of donor emission to acceptor emission after excitation of the donor fluorophore at 400 nm, is used to quantitate reaction progress.
(§3) The compounds are screened in 1% DMSO (final) in the well. For 10 point titrations, 3-fold serial dilutions are conducted from the starting concentration. All Peptide/Kinase Mixtures are diluted to a 2× working concentration in the appropriate Kinase Buffer. All ATP Solutions are diluted to a 4× working concentration in Kinase Buffer (50 mM HEPES pH 7.5, 0.01% BRIJ-35, 10 mM MgCl2, 1 mM EGTA). ATP Km apparent is previously determined using a Z′-LYTE® assay.
(§4) Each compound was incubated at a concentration of 100 nM and the tables 21 to 27 summarize the results obtained showing the inhibitory power of a compound.

FGFR2 = biological target: T2, FGFR2 (Homo sapiens, UniProt P21802); test: In vitro kinase assay (Z'-LYTE, Invitrogen); assay type: biochemical; conditions: compound at 100 nM, ATP Km apparent, read-out: % of inhibition of the kinase compared to the control
T2 construct: purchased Invitrogen
Procedure: as §2, §3, §4

BRAF = biological target: T3, BRAF (Homo sapiens, UniProt P15056); test: In vitro kinase assay (Z'-LYTE, Invitrogen); assay type: biochemical; conditions: compound at 100 nM, ATP Km apparent, read-out: % of inhibition of the kinase compared to the control
T3 construct: purchased Invitrogen
Procedure: as §2, §3, §4

EGFR (ErbB1) = biological target: T4, EGFR (ErbB1) (Homo sapiens, UniProt P00533); test: In vitro kinase assay (Z'-LYTE, Invitrogen); assay type: biochemical; conditions: compound at 100 nM, ATP Km apparent, read-out: % of inhibition of the kinase compared to the control
T4 construct: purchased Invitrogen
Procedure: as §2, §3, §4

PDGFRA (PDGFR alpha) = biological target: T5, PDGFRA (PDGFR alpha) (Homo sapiens, UniProt P16234); test: In vitro kinase assay (Z'-LYTE, Invitrogen); assay type: biochemical; conditions: compound at 100 nM, ATP Km apparent, read-out: % of inhibition of the kinase compared to the control
T5 construct: purchased Invitrogen
Procedure: as §2, §3, §4

SRC = biological target: T6, SRC (Homo sapiens, UniProt P12931); test: In vitro kinase assay (Z'-LYTE, Invitrogen); assay type: biochemical; conditions: compound at 100 nM, ATP Km apparent, read-out: % of inhibition of the kinase compared to the control
T6 construct: purchased Invitrogen
Procedure: as §2, §3, §4

T4 sequence (P00533 25-1210): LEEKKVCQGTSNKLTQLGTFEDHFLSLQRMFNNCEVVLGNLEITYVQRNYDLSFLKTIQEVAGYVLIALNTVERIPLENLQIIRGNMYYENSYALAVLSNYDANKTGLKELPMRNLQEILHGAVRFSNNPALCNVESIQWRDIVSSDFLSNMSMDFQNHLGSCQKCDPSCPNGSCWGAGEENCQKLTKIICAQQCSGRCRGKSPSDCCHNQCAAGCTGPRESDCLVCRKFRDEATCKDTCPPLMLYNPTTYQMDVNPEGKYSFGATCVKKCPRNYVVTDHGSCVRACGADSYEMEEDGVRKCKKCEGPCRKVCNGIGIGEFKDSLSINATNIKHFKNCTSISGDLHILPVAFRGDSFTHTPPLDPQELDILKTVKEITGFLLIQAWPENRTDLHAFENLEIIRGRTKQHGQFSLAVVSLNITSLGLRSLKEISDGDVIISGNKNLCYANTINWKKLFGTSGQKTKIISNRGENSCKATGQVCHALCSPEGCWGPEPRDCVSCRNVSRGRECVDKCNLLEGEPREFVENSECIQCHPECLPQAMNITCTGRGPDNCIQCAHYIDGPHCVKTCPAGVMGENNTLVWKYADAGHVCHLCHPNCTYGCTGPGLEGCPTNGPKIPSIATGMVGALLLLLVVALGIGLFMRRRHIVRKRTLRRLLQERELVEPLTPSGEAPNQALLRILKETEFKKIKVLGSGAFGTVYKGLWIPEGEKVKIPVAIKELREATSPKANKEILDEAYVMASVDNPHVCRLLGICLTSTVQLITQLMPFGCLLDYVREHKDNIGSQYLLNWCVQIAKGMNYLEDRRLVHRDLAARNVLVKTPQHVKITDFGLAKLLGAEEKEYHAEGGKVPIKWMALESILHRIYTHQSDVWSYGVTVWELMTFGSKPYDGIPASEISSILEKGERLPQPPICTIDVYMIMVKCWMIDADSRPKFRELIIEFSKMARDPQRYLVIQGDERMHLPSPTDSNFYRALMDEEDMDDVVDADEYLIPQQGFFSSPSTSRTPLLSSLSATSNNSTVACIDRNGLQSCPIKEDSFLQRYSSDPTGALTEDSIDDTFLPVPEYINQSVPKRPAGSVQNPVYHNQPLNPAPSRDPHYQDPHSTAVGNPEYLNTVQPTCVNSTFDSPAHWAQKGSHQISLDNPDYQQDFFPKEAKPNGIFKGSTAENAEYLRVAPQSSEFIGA
T2 sequence (P21802 22-821): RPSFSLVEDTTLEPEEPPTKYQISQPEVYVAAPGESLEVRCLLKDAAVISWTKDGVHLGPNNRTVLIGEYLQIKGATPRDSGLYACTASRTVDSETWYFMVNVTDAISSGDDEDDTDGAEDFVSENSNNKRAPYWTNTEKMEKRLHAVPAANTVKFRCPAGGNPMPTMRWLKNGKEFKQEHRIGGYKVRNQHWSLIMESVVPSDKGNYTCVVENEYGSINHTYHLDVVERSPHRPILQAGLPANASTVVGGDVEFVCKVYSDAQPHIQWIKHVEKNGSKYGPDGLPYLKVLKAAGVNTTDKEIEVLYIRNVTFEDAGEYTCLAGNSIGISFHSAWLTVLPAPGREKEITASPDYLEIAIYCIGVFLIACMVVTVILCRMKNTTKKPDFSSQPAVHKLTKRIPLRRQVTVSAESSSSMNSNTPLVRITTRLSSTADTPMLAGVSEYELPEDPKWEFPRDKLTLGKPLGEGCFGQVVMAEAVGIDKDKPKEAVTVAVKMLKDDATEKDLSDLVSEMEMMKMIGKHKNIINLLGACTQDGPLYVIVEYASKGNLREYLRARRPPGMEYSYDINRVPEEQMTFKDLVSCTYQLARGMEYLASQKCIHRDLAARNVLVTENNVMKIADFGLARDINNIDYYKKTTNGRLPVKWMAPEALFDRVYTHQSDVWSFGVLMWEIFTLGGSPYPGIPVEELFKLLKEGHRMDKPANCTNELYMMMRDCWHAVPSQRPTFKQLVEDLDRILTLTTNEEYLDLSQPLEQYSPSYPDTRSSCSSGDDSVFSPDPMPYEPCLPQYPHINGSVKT
T6 sequence (P12931 whole entry): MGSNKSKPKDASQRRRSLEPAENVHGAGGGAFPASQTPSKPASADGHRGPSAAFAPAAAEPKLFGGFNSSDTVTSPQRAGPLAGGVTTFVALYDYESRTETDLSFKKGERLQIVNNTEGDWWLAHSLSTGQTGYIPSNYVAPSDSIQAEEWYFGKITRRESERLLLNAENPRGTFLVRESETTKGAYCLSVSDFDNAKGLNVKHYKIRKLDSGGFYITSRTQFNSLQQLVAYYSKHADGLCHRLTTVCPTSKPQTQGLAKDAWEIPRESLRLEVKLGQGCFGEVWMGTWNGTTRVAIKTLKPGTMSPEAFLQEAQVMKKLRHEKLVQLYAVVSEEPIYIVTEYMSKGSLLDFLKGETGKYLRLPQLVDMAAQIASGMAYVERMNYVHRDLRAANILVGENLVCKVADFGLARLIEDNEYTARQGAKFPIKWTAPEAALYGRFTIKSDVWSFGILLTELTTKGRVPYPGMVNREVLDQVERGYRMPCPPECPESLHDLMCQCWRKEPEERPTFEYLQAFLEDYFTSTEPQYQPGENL
T5 sequence (P16234 24-1089): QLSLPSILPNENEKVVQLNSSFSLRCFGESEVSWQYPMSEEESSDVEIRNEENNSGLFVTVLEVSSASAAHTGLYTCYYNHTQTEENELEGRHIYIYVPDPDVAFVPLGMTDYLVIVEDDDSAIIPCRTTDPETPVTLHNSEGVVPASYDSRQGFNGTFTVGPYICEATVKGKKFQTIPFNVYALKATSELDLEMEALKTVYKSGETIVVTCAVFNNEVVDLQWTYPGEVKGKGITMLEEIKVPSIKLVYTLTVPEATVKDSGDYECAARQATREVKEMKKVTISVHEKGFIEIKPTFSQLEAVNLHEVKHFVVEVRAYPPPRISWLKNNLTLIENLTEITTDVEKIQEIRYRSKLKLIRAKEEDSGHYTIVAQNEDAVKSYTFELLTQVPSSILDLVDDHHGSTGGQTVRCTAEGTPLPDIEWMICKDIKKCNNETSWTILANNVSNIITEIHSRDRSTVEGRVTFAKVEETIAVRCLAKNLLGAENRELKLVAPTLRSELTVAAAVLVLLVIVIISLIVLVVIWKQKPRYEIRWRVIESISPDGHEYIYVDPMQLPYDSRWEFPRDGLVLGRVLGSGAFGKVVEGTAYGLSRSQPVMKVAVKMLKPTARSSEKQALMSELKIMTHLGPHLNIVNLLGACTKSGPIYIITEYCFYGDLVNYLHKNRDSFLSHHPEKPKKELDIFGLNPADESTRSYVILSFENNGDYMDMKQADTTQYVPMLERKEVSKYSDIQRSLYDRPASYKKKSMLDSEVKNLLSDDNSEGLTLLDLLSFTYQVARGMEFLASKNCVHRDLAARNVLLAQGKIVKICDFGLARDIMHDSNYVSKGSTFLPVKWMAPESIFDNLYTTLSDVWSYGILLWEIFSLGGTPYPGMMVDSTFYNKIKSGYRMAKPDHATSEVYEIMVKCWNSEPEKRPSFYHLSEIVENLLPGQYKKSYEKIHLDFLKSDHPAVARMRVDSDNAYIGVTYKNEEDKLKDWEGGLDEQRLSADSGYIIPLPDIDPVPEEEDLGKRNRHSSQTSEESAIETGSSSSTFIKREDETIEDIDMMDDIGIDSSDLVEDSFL
T1 sequence (P35968 20-1356): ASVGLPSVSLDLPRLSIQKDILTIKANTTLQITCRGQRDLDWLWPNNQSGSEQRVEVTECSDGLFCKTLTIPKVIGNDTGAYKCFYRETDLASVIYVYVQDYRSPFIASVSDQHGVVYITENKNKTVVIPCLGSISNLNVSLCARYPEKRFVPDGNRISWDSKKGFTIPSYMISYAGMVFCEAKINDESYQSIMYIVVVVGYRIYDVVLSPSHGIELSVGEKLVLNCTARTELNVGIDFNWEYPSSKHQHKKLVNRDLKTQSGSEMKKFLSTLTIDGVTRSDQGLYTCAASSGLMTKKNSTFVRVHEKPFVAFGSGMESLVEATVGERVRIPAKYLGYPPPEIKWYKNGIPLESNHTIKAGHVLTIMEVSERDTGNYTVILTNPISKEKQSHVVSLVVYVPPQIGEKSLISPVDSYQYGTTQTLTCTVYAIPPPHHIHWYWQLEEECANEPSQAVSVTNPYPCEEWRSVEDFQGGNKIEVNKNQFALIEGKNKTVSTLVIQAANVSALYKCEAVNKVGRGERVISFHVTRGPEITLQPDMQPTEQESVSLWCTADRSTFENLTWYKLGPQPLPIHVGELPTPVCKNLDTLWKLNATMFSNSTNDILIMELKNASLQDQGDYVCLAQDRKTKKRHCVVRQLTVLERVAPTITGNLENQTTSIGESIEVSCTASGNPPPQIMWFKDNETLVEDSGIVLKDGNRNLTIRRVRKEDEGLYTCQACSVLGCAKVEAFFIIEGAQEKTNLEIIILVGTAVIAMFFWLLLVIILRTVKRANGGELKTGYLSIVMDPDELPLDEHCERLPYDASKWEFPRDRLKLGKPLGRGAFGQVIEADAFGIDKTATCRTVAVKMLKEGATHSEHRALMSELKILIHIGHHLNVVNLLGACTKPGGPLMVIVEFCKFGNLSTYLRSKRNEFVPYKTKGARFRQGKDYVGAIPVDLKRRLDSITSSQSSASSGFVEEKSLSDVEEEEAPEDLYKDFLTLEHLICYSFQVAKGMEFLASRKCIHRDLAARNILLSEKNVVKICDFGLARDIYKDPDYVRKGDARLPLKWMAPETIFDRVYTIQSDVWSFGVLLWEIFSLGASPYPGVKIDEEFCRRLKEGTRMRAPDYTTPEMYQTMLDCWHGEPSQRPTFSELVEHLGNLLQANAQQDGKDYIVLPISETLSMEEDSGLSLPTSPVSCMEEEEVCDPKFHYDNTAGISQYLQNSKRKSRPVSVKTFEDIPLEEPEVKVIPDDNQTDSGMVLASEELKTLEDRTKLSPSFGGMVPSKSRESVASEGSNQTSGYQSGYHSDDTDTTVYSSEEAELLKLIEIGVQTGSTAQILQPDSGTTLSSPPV

SMILES	EC50 (HUVEC cells) [nM]	EC50 (MDA-MB-231 cell line) [nM]	EC50 (HeLa cell line) [nM]	EC50 (HepG2 cell line) [nM]	EC50 (A549 cell line) [nM]	inhibition at 0.1 µM (KDR (VEGFR2)) [%]	inhibition at 0.1 µM (FGFR2) [%]	inhibition at 0.1 µM (BRAF) [%]	inhibition at 0.1 µM (EGFR (ErbB1)) [%]	inhibition at 0.1 µM (PDGFRA (PDGFR alpha)) [%]	inhibition at 0.1 µM (SRC) [%]
COC(=O)c1cc2cc(CCc3cc(NC(=O)c4cncc(C(F)(F)F)c4)ccc3Cl)cnc2[nH]1 [OR1008, 5-(2-{2-Chloro-5-[(5-trifluoromethyl-pyridine-3-carbonyl)-amino]-phenyl}-ethyl)-1H-pyrrolo[2,3-b]pyridine-2-carboxylic acid methyl ester]	≥ 1000	≥ 1000	≥ 1000	≥ 1000	≥ 1000	≥ 50	< 50	≥ 50	< 50	–	–
COC(=O)c1cc2cc(CCc3cccc(NC(=O)c4ccc5[nH]ccc5c4)c3)cnc2[nH]1 [OR0978, 5-(2-{3-[(1H-Indole-5-carbonyl)-amino]-phenyl}-ethyl)-1H-pyrrolo[2,3-b]pyridine-2-carboxylic acid methyl ester]	≥ 1000	–	–	≥ 1000	–	≥ 50	< 50	< 50	< 50	≥ 50	< 50
COC(=O)c1cc2cc(CCc3cc(NC(=S)c4ccc(CN5CCN(C)CC5)cc4)ccc3C)cnc2[nH]1 [OR0969, 5-(2-{2-Methyl-5-[4-(4-methyl-piperazin-1-ylmethyl)-thiobenzoylamino]-phenyl}-ethyl)-1H-pyrrolo[2,3-b]pyridine-2-carboxylic acid methyl ester]	≥ 1000	–	–	≥ 1000	–	≥ 50	≥ 50	< 50	≥ 50	–	–
Cc1ccc(NC(=O)c2ccc(CN3CCN(C)CC3)c(C(F)(F)F)c2)cc1CCc1cnc2[nH]c(C(=O)O)cc2c1 [OR1054, 5-(2-{2-Methyl-5-[4-(4-methyl-piperazin-1-ylmethyl)-3-trifluoromethyl-benzoylamino]-phenyl}-ethyl)-1H-pyrrolo[2,3-b]pyridine-2-carboxylic acid]	–	–	–	–	–	≥ 50	≥ 50	< 50	≥ 50	–	–
COC(=O)c1cc2cc(CCc3cccc(NC(=O)c4ccc5[nH]nnc5c4)c3)cnc2[nH]1 [OR0977, 5-(2-{3-[(1H-Benzotriazole-5-carbonyl)-amino]-phenyl}-ethyl)-1H-pyrrolo[2,3-b]pyridine-2-carboxylic acid methyl ester]	≥ 1000	–	–	≥ 1000	–	< 50	< 50	< 50	< 50	< 50	< 50
CCN(CC)CCNC(=O)c1c(C)[nH]c(/C=C2\C(=O)Nc3ccc(F)cc32)c1C [Sunitinib, reference compound]	≥ 1000	–	–	–	–	–	–	–	–	–	–
COC(=O)c1cc2cc(CCc3cccc(NC(=O)c4cc[nH]c4)c3)cnc2[nH]1 [OR0976, 5-(2-{3-[(1H-Pyrrole-3-carbonyl)-amino]-phenyl}-ethyl)-1H-pyrrolo[2,3-b]pyridine-2-carboxylic acid methyl ester]	≥ 1000	–	–	≥ 1000	–	< 50	< 50	< 50	< 50	< 50	< 50
